The results in this text go back to patent US4686230A, “Picoline derivative useful as gastric acid secretion inhibitors” (Byk Gulden Lomberg Chemische Fabrik GmbH, priority 1984, dated 1987).

Experiment [1] concerns stomach lesions induced by pylorus ligature and oral administration of 100 mg/kg of acetylsalicylic acid. Kind of experiment: Protective action on the stomach (anti-ulcerogenic action), Shay rats: pylorus ligature + acetylsalicylic acid. Type of experiment: in vivo. The note with it: Rattus norvegicus, 1 h, orally, dose which reduces the mean lesion index by 50% vs control, given one hour before pylorus ligature, read-out: Protective action on the stomach (rats), inhibition of the lesion index, ED50. As for the experimental part:
(§1) The investigated compounds according to the invention have been given numbers as follows:
(§2) The effects of the investigated compounds on the formation of stomach lesions induced by pylorus ligature and oral administration of 100 mg/kg of acetylsalicylic acid and the gastric secretion (HCl) for 4 h in rats (so-called Shay rats) are shown in the table which follows.
(§3) + ED25 and ED50 = dose which reduces the lesion index and the HCl
(§4) secretion (Σ4 h) of the rat stomach in the treated group by 25 and
(§5) 50% respectively, as compared with the control group.
The anti-ulcerogenic action was tested by the method of so-called Shay rats:
The ulcers are provoked in rats (female, 180-200 g, 4 animals in each cage on a high grid) kept fasting for 24 hours by pylorus ligature (under diethyl ether anaesthesia) and oral administration of 100 mg/10 ml/kg of acetylsalicylic acid. The substances to be tested are administered orally (10 ml/kg) one hour before the pylorus ligature. The wounds are closed by means of Michel clamps. 4 hours later, the animals are killed under ether intoxication by atlas dislocation and the stomach is resected. The stomach is opened longitudinally and fixed on a cork plate, after first determining the quantity of the secreted gastric juice (volume) and later its HCl content (titration with sodium hydroxide solution); the number and size (=diameter) of existing ulcers was determined by means of a stereomicroscope at 10-fold magnification. The product of the degree of severity (according to the points rating below) and of the number of ulcers is used as the individual lesion index. […]
(§6) The reduction in the mean lesion index of each treated group as compared with that of the control group (=100%) is taken as the measure of the anti-ulcerogenic effect.

In the next experiment the test system is gastric secretion (HCl). The experiment is described as follows: Inhibition of the HCl secretion of the stomach, Shay rats. It is filed as in vivo, rat. The note with it: total 4 h; for ED25 / ED50: Rattus norvegicus, po, orally; for ED25: dose which reduces HCl secretion by 25% vs control; for ED50: dose which reduces HCl secretion by 50% vs control; for % inhibition of the HCl secretion: after administration of the antiulcer ED50. As for the experimental part:
as §1, §2, §3, §4, §5
++ after administration of the antiulcer ED50
The ulcers are provoked in rats (female, 180-200 g, 4 animals in each cage on a high grid) kept fasting for 24 hours by pylorus ligature (under diethyl ether anaesthesia) and oral administration of 100 mg/10 ml/kg of acetylsalicylic acid. The substances to be tested are administered orally (10 ml/kg) one hour before the pylorus ligature. The wounds are closed by means of Michel clamps. 4 hours later, the animals are killed under ether intoxication by atlas dislocation and the stomach is resected. The stomach is opened longitudinally and fixed on a cork plate, after first determining the quantity of the secreted gastric juice (volume) and later its HCl content (titration with sodium hydroxide solution); the number and size (=diameter) of existing ulcers was determined by means of a stereomicroscope at 10-fold magnification. The product of the degree of severity (according to the points rating below) and of the number of ulcers is used as the individual lesion index.
as §6

In the case of `COc1ccnc(C[S+]([O-])c2nc3cc(OC(F)(F)C(F)Cl)ccc3[nH]2)c1C` (stereo not shown) [compound 10], the median effective dose (ED50) in experiment [1] was 0.4 mg/kg. Moreover, in the experiment with gastric secretion (HCl), the ED25 was determined as 0.4 mg/kg, it took a dose of 0.8 mg/kg to reach the 50% effect level (ED50) and the “% inhibition of the HCl secretion” value is 27%.
For the molecule `COc1ccnc(C(C)[S+]([O-])c2nc3cc4c(cc3[nH]2)OC(F)(F)O4)c1` (stereo not shown) [compound 5], the ED50 in experiment [1] is 1 mg/kg. Further, in the experiment with gastric secretion (HCl), the ED25 came out at 1 mg/kg, the ED50 was determined as 1.7 mg/kg and the “% inhibition of the HCl secretion” value came to 25%.
Consider `COc1ccnc(C[S+]([O-])c2nc3c(C)c(OC(F)F)c(C)cc3[nH]2)c1OC` (stereo not shown) [Serial No. 4, 5-Difluoromethoxy-2-[(3,4-dimethoxy-2-pyridyl)-methylsulphinyl]-4,6-dimethyl-1H-benzimidazole], for which the median effective dose (ED50) in experiment [1] was ~1 mg/kg. Also, in the experiment on gastric secretion (HCl), the ED25 is ~1.3 mg/kg, the median effective dose (ED50) was ~2 mg/kg and the “% inhibition of the HCl secretion” value is 10%.
For `COc1ccnc(CSc2nc3c(C)c(OC(F)F)c(C)cc3[nH]2)c1C` [Serial No. 8, 5-Difluoromethoxy-2-[(4-methoxy-3-methyl-2-pyridyl)methylthio]-4,6-dimethyl-1H-benzimidazole] the same measures were 0.7 mg/kg, 1 mg/kg, 1 mg/kg and 15%.
For `COc1ccnc(C[S+]([O-])c2nc3cc(OC(F)(F)C(F)Cl)ccc3[nH]2)c1` (stereo not shown) [Serial No. 6, 5-(2-Chloro-1,1,2-trifluoroethoxy)-2-[(4-methoxy-2-pyridyl)methylsulphinyl]-1H-benzimidazole] the same measures were 0.55 mg/kg, 0.55 mg/kg, 1.3 mg/kg and 25%.
As for `COc1ccnc(C[S+]([O-])c2nc3c(C)c(OC(F)F)c(C)cc3[nH]2)c1C` (stereo not shown) [Serial No. 1, 5-Difluoromethoxy-2-[(4-methoxy-3-methyl-2-pyridyl)methylsulphinyl]-4,6-dimethyl-1H-benzimidazole], the ED50 in experiment [1] was found to be 0.5 mg/kg. Further, in the experiment on gastric secretion (HCl), the ED25 worked out at 0.5 mg/kg, the ED50 stood at 1.1 mg/kg and the “% inhibition of the HCl secretion” value was 22%.
For the molecule `COc1ccnc(C(C)Sc2nc3cc(OC(F)F)c(OC)cc3[nH]2)c1` (stereo not shown) [Serial No. 9, 5-Difluoromethoxy-6-methoxy-2-{[1-(4-methoxy-2-pyridyl)ethyl]thio}-1H-benzimidazole], the median effective dose (ED50) in experiment [1] came to 1.7 mg/kg. In the experiment with gastric secretion (HCl), the ED25 was < 1 mg/kg, the ED50 is ~4 mg/kg and the “% inhibition of the HCl secretion” value is listed as 35%.
In the case of `COc1ccnc(C(C)[S+]([O-])c2nc3cc(OC(F)(F)C(F)F)ccc3[nH]2)c1` (stereo not shown) [Serial No. 3, 5-(1,1,2,2-Tetrafluoroethoxy)-2-{[1-(4-methoxy-2-pyridyl)ethyl]sulphinyl}-1H-benzimidazole], in experiment [1], the 50% effective dose (ED50) was determined as 0.5 mg/kg. In the experiment with gastric secretion (HCl), the ED25 stood at 0.35 mg/kg, the ED50 stood at 0.8 mg/kg and the “% inhibition of the HCl secretion” value was found to be 35%.
For `COc1ccnc(C(C)[S+]([O-])c2nc3cc(OC(F)F)c(OC)cc3[nH]2)c1` (stereo not shown) [Serial No. 2, 5-Difluoromethoxy-6-methoxy-2-{[1-(4-methoxy-2-pyridyl)ethyl]sulphinyl}-1H-benzimidazole] the same measures were 0.6 mg/kg, ~1 mg/kg, ~2 mg/kg and ~ 20%.
For `COc1ccnc(C(C)[S+]([O-])c2nc3cc(OC(F)(F)C(F)Cl)ccc3[nH]2)c1` (stereo not shown) [Serial No. 7] the same measures were 0.6 mg/kg, 0.4 mg/kg, 0.8 mg/kg and 40%.

As a reminder, the ED50 is the dose at which the effect has come halfway, by size or by number of responders.
